Measurements: US20250213701A1, “MEDICAMENT FOR TREATING HUMAN TUMOR BASED ON ERF3A-TARGETING PROTEOLYSIS MECHANISM” (SUZHOU DEGEN BIO-MEDICAL CO., LTD., priority 2022, published 2025)

Legend:
Format in all cases: cell-based
SRD5A3 = target: T1, SRD5A3 (Homo sapiens, UniProt Q9H8P0); test: Western blot assay in 22Rv1 cells: SRD5A3; details: different concentrations at 24 h, and 3 nM at different time points (FIGS. 7 and 8)
T1 construct: The downregulation of SRD5A3 and GSPT1 (eRF3a) proteins in PC-3 and HepG2 cells by C59; endogenous in cells; host or cells: 22Rv1, PC-3, HepG2
T1 sequence (Q9H8P0 1-318): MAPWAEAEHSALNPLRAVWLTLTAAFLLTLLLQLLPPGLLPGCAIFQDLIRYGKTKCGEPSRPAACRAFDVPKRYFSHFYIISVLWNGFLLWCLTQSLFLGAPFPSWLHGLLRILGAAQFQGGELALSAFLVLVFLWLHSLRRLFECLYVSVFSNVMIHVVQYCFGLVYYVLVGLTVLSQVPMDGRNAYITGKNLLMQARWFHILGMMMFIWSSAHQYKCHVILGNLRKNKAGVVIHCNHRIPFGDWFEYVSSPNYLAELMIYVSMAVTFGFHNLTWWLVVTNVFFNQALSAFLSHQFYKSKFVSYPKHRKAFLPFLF
Excerpt: Example 84: Western Blot Assay of Compound C59 in 22Rv1, PC-3, and HepG2 Cells
(1) Materials: 22Rv1, PC-3, and HepG2 cell, anti-SRD5A1 antibody (ab167606), anti-SRD5A2 antibody (ab124877), anti-SRD5A3 antibody (PA5-107029), anti-androgen receptor (AR) antibody (CST, No. 5153), anti-GSPT1 antibody (Abcam, ab234433), anti-GADPH antibody (CST, No. 5174), anti-c-Myc antibody (CST, No. 8583), anti-α-tublin antibody (CST, No. 2125), anti-rabbit IgG, HRP-linked antibody (CST, No. 7074), electrophoresis device and membrane transfer device (LIUYI, BEIJING; DYCZ-24DN)
Cell seeding: 22Rv1 (Cell Bank of the Chinese Academy of Sciences, TCHu100), PC-3 (Cell Bank of the Chinese Academy of Sciences, SCSP-532) and HepG2 cells (Cell Bank of the Chinese Academy of Sciences, TCHu72) were subcultured and trypsinized to prepare 6×10^5 cells/mL suspensions, seeded on 6-well plates (3 mL/well), and cultured overnight in a cell incubator at 5% CO2 and 37° C. […]
Protein quantification: The protein was quantified using a BCA protein quantification kit. […]
Western immunoblot assay (or Western blot, WB): SDS-PAGE gel at a proper concentration was prepared according to the molecular weight of the target protein: for example, the concentration of the separation gel was 8% and the concentration of the stacking gel was 5%. The loading volume was adjusted according to the protein quantification results. […]

PC-3 cells = test: Anti-proliferative toxicity of C63 in tumor cell lines (CCK8): PC-3; details: Homo sapiens, 72 h, 3 days, read-out: Inhibition rate
Method: (§1) Example 83: Detection of Anti-Proliferative Toxicity of C63 in Some Tumor Cell Lines
PC-3 cells (purchased from the Cell Bank of the Chinese Academy of Sciences, Cat. No. SCSP-532) were subcultured in a culture medium (F12K medium+1% penicillin-streptomycin dual-antibiotic solution+10% fetal bovine serum) in an incubator at […] and 37° C.
PC-3 cells were seeded at 4000 cells/well (90 μL) on a 96-well plate and cultured for 24 h.
(§2) 10 mM compound stock solutions were prepared in DMSO.
(§3) The compound stock solution was diluted with DMSO to give DMSO solutions 1-9 at concentrations of 0 μM, 2500 μM, 500 μM, 100 μM, 20 μM, 4 μM, 0.8 μM, 0.16 μM, and 0.032 μM.
(§4) 2 μL of each of solutions 1-9 was added to 98 μL of the medium to give mixed solutions 11-19 of the compound and the medium.
(§5) 10 μL of each of solutions 11-19 was added to the above cell seed solution to give a total volume of 100 μL (90 μL+10 μL).
(§6) The concentrations of the compound in the wells were 0 μM, 5.0 μM, 1.0 μM, 0.2 μM, 0.04 μM, 0.008 μM, 0.0016 μM, 0.00032 μM, and 0.000064 μM. All concentrations were in triplicate.
(§7) After the above-treated cells were cultured for 3 days, 10 μL of the CCK8 solution (DOJINDO, Cat. No. PF725) was added to each well. The plate was incubated in an incubator at 37° C. for 1-4 h and then detected on a microplate reader for the reading at 450 nm.

MDA-MB-231 cells = test: Anti-proliferative toxicity of C63 in tumor cell lines (CCK8): MDA-MB-231; details: Homo sapiens, 72 h, 3 days, read-out: Inhibition rate
Method: as §1
MDA-MB-231 cells (purchased from the Cell Bank of the Chinese Academy of Sciences, Cat. No. TCHu227) were subcultured in a culture medium (L15 medium+1% penicillin-streptomycin dual-antibiotic solution+10% fetal bovine serum) in an incubator at 37° C.
MDA-MB-231 cells were seeded at 5000 cells/well (90 μL) on a 96-well plate and cultured for 24 h.
as §2, §3, §4, §5, §6, §7

Row | SMILES | downregulation of SRD5A3 protein (Western blot) (SRD5A3) | inhibition at 64 pM (PC-3 cells; 0.000064 μM) | inhibition at 0.00032 µM (PC-3 cells; 0.000320 μM) | inhibition at 0.0016 µM (PC-3 cells; 0.001600 μM) | inhibition at 0.008 µM (PC-3 cells; 0.008000 μM) | inhibition at 0.04 µM (PC-3 cells; 0.040000 μM) | inhibition at 0.2 µM (PC-3 cells; 0.200000 μM) | inhibition at 1 µM (PC-3 cells; 1.000000 μM) | inhibition at 5 µM (PC-3 cells; 5.000000 μM) | inhibition at 64 pM (MDA-MB-231 cells; 0.000064 μM) | inhibition at 0.00032 µM (MDA-MB-231 cells; 0.000320 μM) | inhibition at 0.0016 µM (MDA-MB-231 cells; 0.001600 μM) | inhibition at 0.008 µM (MDA-MB-231 cells; 0.008000 μM) | inhibition at 0.04 µM (MDA-MB-231 cells; 0.040000 μM) | inhibition at 0.2 µM (MDA-MB-231 cells; 0.200000 μM) | inhibition at 1 µM (MDA-MB-231 cells; 1.000000 μM) | inhibition at 5 µM (MDA-MB-231 cells; 5.000000 μM)
1 | C[C@]12C=CC(=O)N[C@@H]1CC[C@@H]1[C@@H]2CC[C@]2(C)[C@@H](C(=O)Nc3cccc(N[C@@H]4CCC[C@@H](Nc5cccc6c5C(=O)N(C5CCC(=O)NC5=O)C6=O)C4)c3)CC[C@@H]12 (stereo partly drawn) [C59, N-(3-(N—(N-(4-(2-(3-(2,6-dioxopiperidine))-isoindole-1,3-dione))-1R,3R-cyclohexanediamine))phenyl)-3-oxo-4-aza-5α-androst-1-ene-17β-carboxamide] | downregulation |  |  |  |  |  |  |  |  |  |  |  |  |  |  |  | 
2 | C[C@]12C=CC(=O)N[C@@H]1CC[C@@H]1[C@@H]2CC[C@]2(C)[C@@H](C(=O)Nc3cccc(N[C@@H]4CCC[C@@H](Nc5cccc6c5C(=O)N([C@H]5CCC(=O)NC5=O)C6=O)C4)c3)CC[C@@H]12 [C63, N-(3-(N—(N-(4-(2-(3S-(2,6-dioxopiperidine))-isoindole-1,3-dione))-1R,3R-cyclohexanediamine))phenyl)-3-oxo-4-aza-5α-androst-1-ene-17β-carboxamide] |  | 45.1% | 65.1% | 78.8% | 82.8% | 80.2% | 78.4% | 78.4% | 82.1% | 27.6% | 62.8% | 75.6% | 79.3% | 80.1% | 79.9% | 78.8% | 80.4%
